According to ChEMBL document CHEMBL1201862, “PubChem BioAssay data set” (2004):
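Growth conditions: 96-well plates. Treatment: test compound, 48 hours, 5 concentrations. Analysis: linear interpolation between bracketing concentrations; unreached endpoints set to highest concentration. GI50 is the concentration that inhibits growth by half.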 Activity calls are given as the source filed them. Cut-off read from the data, not from the text of the source: active = GI50 up to about 1.1 µM and inactive = higher.

Key:
Test in all cases: NCI-60 cell line screen, 48 h
SW-620 = test system: SW-620
LOX IMVI = test system: LOX IMVI
HT-29 = test system: HT-29
A498 = test system: A498
HL-60 = test system: HL-60
KM12 = test system: KM12
M14 = test system: M14
HOP-62 = test system: HOP-62
SNB-19 = test system: SNB-19
CAKI-1 = test system: CAKI-1
SK-MEL-5 = test system: SK-MEL-5
MCF7 = test system: MCF7
RPMI-8226 = test system: RPMI-8226
NCI-H522 = test system: NCI-H522
NCI-H23 = test system: NCI-H23
UACC-62 = test system: UACC-62
CCRF-CEM = test system: CCRF-CEM
TK-10 = test system: TK-10
COLO 205 = test system: COLO 205
OVCAR-8 = test system: OVCAR-8

Row | Structure (SMILES) | GI50 (SW-620) | GI50 (LOX IMVI) | GI50 (HT-29) | GI50 (A498) | GI50 (HL-60) | GI50 (KM12) | GI50 (M14) | GI50 (HOP-62) | GI50 (SNB-19) | GI50 (CAKI-1) | GI50 (SK-MEL-5) | GI50 (MCF7) | GI50 (RPMI-8226) | GI50 (NCI-H522) | GI50 (NCI-H23) | GI50 (UACC-62) | GI50 (CCRF-CEM) | GI50 (TK-10) | GI50 (COLO 205) | GI50 (OVCAR-8)
1 | CNc1ccc2c(c1)[C@@]1(C)c3ccccc3[C@@H](C2)N1C | 33.7 µM (inactive) | 19.5 µM (inactive) | 18.8 µM (inactive) | 26.4 µM (inactive) | 14.7 µM (inactive) | 22.4 µM (inactive) | 21.6 µM (inactive) | 42.1 µM (inactive) | 37.8 µM (inactive) | 36.5 µM (inactive) | 17.7 µM (inactive) | 29.7 µM (inactive) | 15.7 µM (inactive) | 15.7 µM (inactive) | 22.6 µM (inactive) | 16.4 µM (inactive) | 20.4 µM (inactive) | 28.8 µM (inactive) |  | 
2 | CCOC(=O)c1ccc(C(=O)n2ccnc2)[nH]1 | > 100 µM (inactive) | > 100 µM (inactive) |  | > 100 µM (inactive) | > 100 µM (inactive) | > 100 µM (inactive) | > 100 µM (inactive) | > 100 µM (inactive) | > 100 µM (inactive) | > 100 µM (inactive) | > 100 µM (inactive) | > 100 µM (inactive) | > 100 µM (inactive) | > 100 µM (inactive) | > 100 µM (inactive) | > 100 µM (inactive) | > 100 µM (inactive) | > 100 µM (inactive) | > 100 µM (inactive) | > 100 µM (inactive)
3 | CCN(CC)CCCNc1c2c(Cl)cc(Cl)cc2nc2nc(O)nc(C)c12 | 17.8 µM (inactive) | 23.1 µM (inactive) | 18 µM (inactive) | > 100 µM (inactive) | 57.4 µM (inactive) | 15.7 µM (inactive) | 26.4 µM (inactive) | 23.2 µM (inactive) | 19.5 µM (inactive) | > 100 µM (inactive) | 65.9 µM (inactive) | 23.3 µM (inactive) | > 10 µM (inactive) | 21.6 µM (inactive) | 55.8 µM (inactive) | 68.2 µM (inactive) | 34.5 µM (inactive) | > 100 µM (inactive) | 45.3 µM (inactive) | > 10 µM (inactive)
4 | C=C1CC(C)(COc2ccc3c(C)c(C)c(=O)oc3c2C)OC1=O (stereo not given) | 1.29 µM (inactive) | 1.2 µM (inactive) | 2.17 µM (inactive) | 2.22 µM (inactive) | 0.19 µM (active) | 4.54 µM (inactive) | 2.56 µM (inactive) | 12.5 µM (inactive) | 13.4 µM (inactive) | 1.7 µM (inactive) | 1.68 µM (inactive) | 1.29 µM (inactive) | 0.594 µM (active) | 1.56 µM (inactive) | 1.82 µM (inactive) | 1.27 µM (inactive) | 0.411 µM (active) | 1.15 µM (inactive) | 1.06 µM (active) | 2.11 µM (inactive)
5 | O=C1c2ccccc2C(=O)N1CC1(C(=O)O)NCCS1(=O)=O (stereo not given) | > 100 µM (inactive) | > 100 µM (inactive) | > 100 µM (inactive) | > 100 µM (inactive) | > 100 µM (inactive) | > 100 µM (inactive) | > 100 µM (inactive) | > 100 µM (inactive) | > 100 µM (inactive) | > 100 µM (inactive) | > 100 µM (inactive) | > 100 µM (inactive) | > 100 µM (inactive) | > 100 µM (inactive) | > 100 µM (inactive) | > 100 µM (inactive) | > 100 µM (inactive) | > 100 µM (inactive) | > 100 µM (inactive) | > 100 µM (inactive)
6 | C(=C/c1nc2ccccc2o1)/c1ccc2c(c1)OCO2 | 16.7 µM (inactive) | 6.59 µM (inactive) | 12.8 µM (inactive) | 21.8 µM (inactive) | 16.8 µM (inactive) | 4.91 µM (inactive) |  | 16.2 µM (inactive) | 16.1 µM (inactive) | 9.82 µM (inactive) | 8.41 µM (inactive) | 14.5 µM (inactive) | 26.4 µM (inactive) | 7.74 µM (inactive) | 22.9 µM (inactive) | 2.62 µM (inactive) | > 67.9 µM (inactive) |  | 40.7 µM (inactive) | 29.7 µM (inactive)
7 | COC(=O)Cc1c([C@H]2[C@H](CC(=O)OC)c3ccccc3N2C(=O)C(F)(F)F)[nH]c2ccccc12 | 32.4 µM (inactive) | 26.4 µM (inactive) | 29.3 µM (inactive) | 90.2 µM (inactive) | 40.3 µM (inactive) |  |  | 29 µM (inactive) | 54.3 µM (inactive) | 41.3 µM (inactive) | 11.6 µM (inactive) | 26 µM (inactive) | 17.7 µM (inactive) | 12 µM (inactive) | 25.2 µM (inactive) | 13.6 µM (inactive) | 14.6 µM (inactive) | 51.4 µM (inactive) | 18.2 µM (inactive) | 32.5 µM (inactive)
8 | NC(=O)c1ccccc1NC(=O)C(=O)C(c1cnc2ccc([N+](=O)[O-])cc2n1)[N+](=O)[O-] (stereo not given) | > 100 µM (inactive) | 40.5 µM (inactive) | > 100 µM (inactive) | > 100 µM (inactive) | > 100 µM (inactive) | 54.6 µM (inactive) | > 100 µM (inactive) | > 100 µM (inactive) | 79.1 µM (inactive) | > 100 µM (inactive) | 77.8 µM (inactive) | 62.1 µM (inactive) | > 100 µM (inactive) | 33.3 µM (inactive) | > 100 µM (inactive) | > 100 µM (inactive) | 39.2 µM (inactive) | > 100 µM (inactive) |  | > 100 µM (inactive)
9 | N#Cc1sc2c(c1OC(=O)c1ccc(Cl)cc1)c(=O)n(-c1ccccc1)c(=S)n2-c1ccccc1 | 21.2 µM (inactive) | 17.1 µM (inactive) | 22.4 µM (inactive) | 21.5 µM (inactive) | 19.4 µM (inactive) | 14.9 µM (inactive) | 20.4 µM (inactive) | 27.7 µM (inactive) | 21.9 µM (inactive) | 27.3 µM (inactive) | 17.1 µM (inactive) | 23.1 µM (inactive) | 17.7 µM (inactive) | 0.504 µM (active) | 21.7 µM (inactive) | 18.2 µM (inactive) | 4.37 µM (inactive) | 23.3 µM (inactive) | 18.5 µM (inactive) | 18.1 µM (inactive)
10 | CCCCCCCCCCCC(=O)OCC(C[As](=O)(O)O)OC(=O)CCCCCCCCCCC (stereo not given) | 12.1 µM (inactive) | 4.76 µM (inactive) | 7.62 µM (inactive) | 5.15 µM (inactive) | 2.61 µM (inactive) | 7.1 µM (inactive) | 1.97 µM (inactive) | 26.9 µM (inactive) | 3.28 µM (inactive) | 9.27 µM (inactive) | 1.75 µM (inactive) | 3.93 µM (inactive) | 7.4 µM (inactive) | 2.13 µM (inactive) | 5.61 µM (inactive) | 2.03 µM (inactive) | 3.72 µM (inactive) | 14.3 µM (inactive) | 7.67 µM (inactive) | 11.7 µM (inactive)
11 | COc1ccc(N(C)C(=O)N(C)c2ccc([N+](=O)[O-])cc2)cc1 | 23.3 µM (inactive) | 33.1 µM (inactive) | 28.6 µM (inactive) | 66.4 µM (inactive) | 31 µM (inactive) | 18.8 µM (inactive) | 34 µM (inactive) | 39.4 µM (inactive) | > 100 µM (inactive) | 41.6 µM (inactive) | 38.8 µM (inactive) | 39.1 µM (inactive) | 51.1 µM (inactive) | 23.8 µM (inactive) | 34.6 µM (inactive) | 33.9 µM (inactive) | 23.9 µM (inactive) | 10.5 µM (inactive) |  | 71 µM (inactive)
12 | CC(C)(CN1CCCCC1)C(=O)/C=C/c1c(Cl)cccc1Cl | 0.927 µM (active) | 0.811 µM (active) | 1.38 µM (inactive) | 1.57 µM (inactive) | 1.61 µM (inactive) | 0.867 µM (active) | 0.863 µM (active) | 1.79 µM (inactive) | 2.44 µM (inactive) | 1.08 µM (active) | 1.42 µM (inactive) | 1.29 µM (inactive) | 3.89 µM (inactive) | 0.124 µM (active) | 1.35 µM (inactive) | 1.29 µM (inactive) | 0.52 µM (active) | 0.627 µM (active) | 1.57 µM (inactive) | 2.18 µM (inactive)
13 | CCCCCCc1cc2cc(C(=O)Nc3nc(C45CC6CC(CC(C6)C4)C5)cs3)c(=O)oc2cc1O | 19 µM (inactive) | 11.2 µM (inactive) | 13.3 µM (inactive) | 13.6 µM (inactive) | 5.18 µM (inactive) | 11 µM (inactive) |  | 18.1 µM (inactive) | 12.3 µM (inactive) | 8.81 µM (inactive) | 11.9 µM (inactive) | 13.9 µM (inactive) | 11.2 µM (inactive) | 3.45 µM (inactive) | 5 µM (inactive) | 4.65 µM (inactive) | 6.78 µM (inactive) | 11.3 µM (inactive) | 16.7 µM (inactive) | 7.11 µM (inactive)
14 | BrP(NC1CCCCCC1)(c1ccccc1)(c1ccccc1)c1ccccc1 | 3.09 µM (inactive) | 2.36 µM (inactive) | 2.1 µM (inactive) | 0.986 µM (active) | 1.9 µM (inactive) | 0.873 µM (active) | 12.4 µM (inactive) | 8.79 µM (inactive) | 4.66 µM (inactive) | 3.98 µM (inactive) | 1.59 µM (inactive) | 2.5 µM (inactive) | 1.03 µM (active) | 2.23 µM (inactive) | 5.12 µM (inactive) | 3.03 µM (inactive) | 2.97 µM (inactive) | 6.58 µM (inactive) | 1.78 µM (inactive) | 2.9 µM (inactive)
